In paper PMC6154339, “Synthesis, Characterization, Antimicrobial and Antiproliferative Activity Evaluation of Cu(II), Co(II), Zn(II), Ni(II) and Pt(II) Complexes with Isoniazid-Derived Compound” (Molecules : A Journal of Synthetic Chemistry and Natural …, 2017):
Values after ≈ are worked out from the molar mass of the structure shown. Read-outs that look alike come from different tables or passages of the source.

How the values were obtained:
in vivo = conditions: Daphnia magna
[1] = test system: NCI-H1573 lung adenocarcinoma cell line; experiment: Alamar blue cell viability assay; assay type: cell-based; conditions: 48 h treatment, relative to untreated control; for Viability %: 10 µM
Description: (§1) Compounds HL, 1, 5, 6 and 8 were dissolved in dimethyl sulfoxide (DMSO; Sigma-Aldrich, Ayrshire, UK) and stored at 2–8 °C. Compounds 2, 3, 4 and 7 were dissolved in pyridine (Fluka, Munich, Germany). A stock solution of 10 mM in the proper solvents was prepared; as for the final concentration (10 µM), successive dilution of the stock solution with culture medium was made.
(§2) The breast cancer cell lines were cultured as follow: MCF-7 human breast cancer cell line (ATCC, Rockville, MD, USA) was cultured in EMEM (Sigma Aldrich, Munich, Germany) supplemented with 10% FCS (fetal bovine serum, PromoCell, Heidelberg, Germany), 1% penicillin-streptomycin (Pen/Strep, 10,000 IU/mL; PromoCell, Heidelberg, Germany), 1% nonessential amino acids and 1% glutamine (PromoCell, Heidelberg, Germany). SKBR-3 human breast cancer cell line was cultured in McCoy’s 5a Medium Modified (Sigma Aldrich, Munich, Germany) supplemented with 10% FCS (fetal bovine serum, PromoCell, Heidelberg, Germany), 1% penicillin-streptomycin (Pen/Strep, 10,000 IU/mL; PromoCell, Heidelberg, Germany). A375 human melanoma cell line was cultured in DMEM containing 15% FCS (fetal bovine serum, PromoCell, Heidelberg, Germany) and 1% penicillin-streptomycin (Pen/Strep, 10,000 IU/mL; PromoCell, Heidelberg, Germany). Cells were maintained at an atmosphere of 5% CO2 at 37 °C. NCI-H1573 lung adenocarcinoma cell line was cultured in RPMI-1640 Medium (ATCC, Rockville, MD, USA) supplemented with 10% FCS (fetal bovine serum, PromoCell, Heidelberg, Germany), 1% penicillin-streptomycin (Pen/Strep, 10,000 IU/mL; PromoCell, Heidelberg, Germany).
(§3) All tested cell lines were seeded onto a 96-well microplate ([…]) and left overnight to attach to the bottom of the well. After 24 h, the amount of 150 μL of the tested substances dissolved into the culture medium was added and cells were incubated for 48 h. After the incubation period, a volume of 15 μL of the Alamar blue (BioSource, Camarillo, CA, USA) solution was added. After another 10 h of incubation at 37 °C, the samples were spectrophotometrically analyzed using a microplate reader. The wave lengths used were 570 nm and 600 nm, respectively. Wells with untreated cells were used as controls. The highest concentration of DMSO and pyridine (0.1%) used to prepare stock solutions was also tested, in order to identify the solvent activity. All measurements were performed in triplicate and data were presented as mean ± standard deviation.

[2] = test system: MCF-7 human breast cancer cell line; experiment: Alamar blue cell viability assay; assay type: cell-based; conditions: 48 h treatment, relative to untreated control; for Viability %: 10 µM
Description: as §1, §2, §3

[3] = test system: A375 human melanoma cell line; experiment: Alamar blue cell viability assay; assay type: cell-based; conditions: relative to untreated control; for Viability %: 48 h treatment, 10 µM
Description: as §1, §2, §3

[4] = test system: SKBR-3 human breast cancer cell line; experiment: Alamar blue cell viability assay; assay type: cell-based; conditions: relative to untreated control; for Viability %: 48 h treatment, 10 µM
Description: as §1, §2, §3

[5] = Solubility in compendial aqueous media; assay type: physicochemical; conditions: 37 °C, mean ± standard deviation, n = 3; for solubility at 30 min: kinetic from dmso stock; for solubility in compendial media: 30 min
Description: Solubility assessment was conducted in compendial aqueous solutions prepared according to United States Pharmacopoeia USP39/NF34): hydrochloric acid 0.1 N pH 1.2, acetate buffer pH 4.5 and phosphate buffer 6.8. These buffer systems are routinely used for screening of drug dissolution testing and they simulate the pH values of proximal gastrointestinal regions. The standard samples were prepared by diluting the stock solution of 80 µg/mL in dimethyl sulfoxide (with 0.2% pyridine, v/v) with corresponding media. The reagents were of analytical grade and used as received.
The assay was performed using a SpectraMax Plus 84 Plate reader reader (Sunnyvale, CA, USA), Molecular Devices LLC (US), equiped with SoftMax software version 6.4.2 (Sunnyvale, CA, USA). Separate plates were loaded with standard solutions in nine concentrations (0.2 to 80 µg/mL). For evaluation of the aqueous solubility, the samples were prepared in triplicate by adding 10 µL of the stock solution to the wells loaded with 190 µL of each buffer, using MultiScreen HTS plates (PCF, code MSSLBPC, Merck Millipore, Darmstadt, Germany). After 30 minutes of incubation at 37 ± 0.5 °C under agitation (250 rpm, IKA KS 4000 ic control, IKA, Staufen, Germany), the plates were filtrated under vacuum using a Vac-Man 96 Vacuum manifold (Promega Corporation, Madison, WI, USA). The solutions were collected in V-bottom polypropylene 96-well microplates (Greiner Bio-One, Kremsmünster, Austria). Volumes of 100 µL were transferred to UV-Star 96-well microplate with flat bottom (Chimney well, Grained Bio-One) and diluted by addition of 100 µL of the corresponding medium. The absorbance corresponding to each well was determined at fixed wavelengths: 280, 300, 320, 340, 360 and 800 nm. The reduced value of absorbance, calculated by the sum of the values recorded at the six wavelengths, were used for the calibration curve and subsequent determination of concentration in each solubility sample.

Candida albicans = experiment: Antifungal (antimycotic) activity, liquid Sabouraud medium (MIC/MBC); assay type: cell-based; conditions: C. albicans
Description: (§4) All synthesized complexes and the ligand were screened for their in vitro antibacterial activity against Gram-positive bacteria (Staphylococcus aureus), Gram-negative bacteria (Escherichia coli, Klebsiella pneumoniae) and antifungal activity (Candida albicans) strains using the paper disc diffusion technique (for the qualitative determination) and the serial dilutions in liquid broth method (for determination of MIC). Furacillinum and nystatine were used as standard drugs.
Antimycotic properties of the complexes were investigated in vitro on laboratory stem Candida albicans. The activity has been determined in a liquid Sabouraud nutritive environment (pH 6.8). The inoculates were prepared from fungi stems which were harvested over 3–7 days. Their concentration in suspension is (2–4) × 10^6 colonies form unities in milliliter. Sowings for levures and micelles were incubated at 37 °C during 7 and 14 days, respectively.

[6] = test system: Klebsiella pneumoniae, ATCC 31,488; experiment: Antibacterial activity, serial dilutions in liquid broth (MIC/MBC); assay type: cell-based; conditions: K. pneumoniae (G −)
Description: as §4
(§5) The antibacterial activity of complexes and also of their prototype furacilin has been determined under liquid nutritive environment (2% of peptonate bullion (pH 7.0)) using the successive dilutions method. Escherichia coli, Klebsiella pneumoniae, and Staphylococcus aureus stems were used as reference culture for the in vitro experiment. The dissolution of studied substances in dimethylformamide, microorganism cultivation, suspension obtaining, determination of minimal inhibition concentration (MIC) and minimal bactericide concentration (MBC) have been carried out according to the method previously reported.

[7] = test system: Staphylococcus aureus, ATCC 25923; experiment: as above; assay type: cell-based; conditions: S. aureus (G +)
Description: as §4, §5

[8] = test system: Escherichia coli, ATCC 25922; experiment: as above; assay type: cell-based; conditions: E. coli (G −)
Description: as §4, §5

[9] = Qualitative solubility in organic solvents; assay type: physicochemical
[10] = Hydrochloric Acid 0.1 N (pH = 1.2)

| Compound | MBC (Candida albicans) [µg/mL] | MIC (Candida albicans) [µg/mL] | MBC [6] [µg/mL] | MIC [6] [µg/mL] | MBC [7] [µg/mL] | MIC [7] [µg/mL] | MBC [8] [µg/mL] | MIC [8] [µg/mL] | solubility in organic solvents (qualitative) [9] | Viability % [1] [%] | Viability % [2] [%] | Viability % [3] [%] | Viability % [4] [%] | LC50 (Daphnia magna; incubation period 24 h) [µM] | LC50 (Daphnia magna; incubation period 48 h) [µM] | solubility in compendial media ([5]; Acetate Buffer (pH = 4.5)) [µg/mL] | solubility in compendial media [5, 10] [µg/mL] | solubility in compendial media ([5]; Phosphate Buffer (pH = 6.8)) [µg/mL] | other results |
| --- | --- | --- | --- | --- | --- | --- | --- | --- | --- | --- | --- | --- | --- | --- | --- | --- | --- | --- | --- |
| COc1cccc(/C=N/NC(=O)c2ccncc2)c1O [HL, N-isonicotinoyl-N′-(3-metoxy-2 hydroxybenzaldehyde)-hydrazone] |  |  |  |  |  |  |  |  |  |  |  |  |  |  |  |  |  |  | LC50 (in vivo; LC50, incubation period 24 h): 53.1 µM; LC50 (in vivo; LC50, incubation period 48 h): 52.6 µM; viability at 10 µM ([1]; Homo sapiens, NCI-H1573, 48 h): 29.2%; viability at 10 µM ([2]; Homo sapiens, MCF7, 48 h): 21.5%; viability at 10 µM ([3]; Homo sapiens, A-375, 48 h treatment): 82.4%; viability at 10 µM ([4]; Homo sapiens, SK-BR-3, 48 h treatment): 76.3%; solubility at 30 min ([5]; aqueous buffer, Acetate Buffer (pH = 4.5)): 3.49 ± 0.41 µg/mL (≈ 12.9 µM); solubility at 30 min ([5]; aqueous buffer, Phosphate Buffer (pH = 6.8)): 0.25 ± 0.02 µg/mL (≈ 0.922 µM); solubility at 30 min ([5]; simulated gastric fluid, Hydrochloric Acid 0.1 N (pH = 1.2)): 2.02 ± 0.02 µg/mL (≈ 7.45 µM) |
| CC(=O)[O-].COc1cccc(C=NNC(=O)c2ccncc2)c1[O-].[Cu+2] [complex 2, [Cu(L)(CH3COO)]] | 250 | 125 | 500 | 500 | 0.015 | 0.015 | 500 | 500 | soluble in pyridine and is partially soluble in ethanol, methanol, acetonitrile, acetone, DMF and DMSO | 7.22 | 2.10 | 0.73 | 6.88 | 69.6 | 13.1 | 1.27 ± 0.06 | 1.75 ± 0.54 | <0.2 |  |
| COc1cccc(C=NNC(=O)c2ccncc2)c1[O-].O.O=[N+]([O-])[O-].[Cu+2] [complex 3, [Cu(L)(NO3)]·H2O] | 3 | 1.5 | 500 | 500 | 0.15 | 0.07 | 500 | 500 | soluble in pyridine and is partially soluble in ethanol, methanol, acetonitrile, acetone, DMF and DMSO | 12.14 | 2.44 | 1.59 | 62.65 | 317 | 5.61 | 1.69 ± 0.18 | 0.92 ± 0.11 | <0.2 |  |
| COc1cccc(C=NNC(=O)c2ccncc2)c1[O-].COc1cccc(C=NNC(=O)c2ccncc2)c1[O-].[Co+2] [complex 5, [Co(L)2]] | 250 | 125 | 500 | 500 | 0.7 | 0.7 | 500 | 250 | soluble in pyridine, DMF and DMSO, and is partially soluble in ethanol, methanol, acetonitrile, acetone | 89.79 | 55.61 | 88.96 | 76.68 | 278 | 2.38 | 1.62 ± 0.72 | <0.2 | <0.2 |  |
